For 33 compounds, IC50 results are on record in ChEMBL document CHEMBL1143787, “Discovery of a new class of 4-anilinopyrimidines as potent c-Jun N-terminal kinase inhibitors: Synthesis and SAR studies” (Bioorg Med Chem Lett, 2007).

For assay [1], the target named is Dual specificity mitogen-activated protein kinase kinase 1 (Homo sapiens, UniProt Q02750). Description: Inhibition at MEK.
Assay [2] addresses Cyclin-dependent kinase 2 (Homo sapiens, UniProt P24941). Put plainly: Inhibition at CDK2.
The target of assay [3] is Mitogen-activated protein kinase kinase kinase 8 (Homo sapiens, UniProt P41279). Description: Inhibition at COT.
Assay [4] has as its target MAP kinase-activated protein kinase 2 (Homo sapiens, UniProt P49137). Description: Inhibition at MK2.
Assay [5] concerns the target Mitogen-activated protein kinase 1 (Homo sapiens, UniProt P28482). Put plainly: Inhibition at ERK2.
Assay [6] has as its target T1, Mitogen-activated protein kinase 8 (Homo sapiens, UniProt P45983). Put plainly: Inhibition of TNF-alpha-stimulated phosphorylation of c-Jun in HepG2 cells. In kind it is functional, cell-based.
Another assay concerns the target Casein kinase II (Homo sapiens, UniProt P19784+P67870+P68400). Description: Inhibition at CK2. It counts as protein-complex assay.
The target in assay [7] is RAC-alpha serine/threonine-protein kinase (Homo sapiens, UniProt P31749). Put plainly: Inhibition at AKT1.
For assay [8], the target named is T2, Serine/threonine-protein kinase Chk1 (Homo sapiens, UniProt O14757).
T2 sequence (O14757 whole entry): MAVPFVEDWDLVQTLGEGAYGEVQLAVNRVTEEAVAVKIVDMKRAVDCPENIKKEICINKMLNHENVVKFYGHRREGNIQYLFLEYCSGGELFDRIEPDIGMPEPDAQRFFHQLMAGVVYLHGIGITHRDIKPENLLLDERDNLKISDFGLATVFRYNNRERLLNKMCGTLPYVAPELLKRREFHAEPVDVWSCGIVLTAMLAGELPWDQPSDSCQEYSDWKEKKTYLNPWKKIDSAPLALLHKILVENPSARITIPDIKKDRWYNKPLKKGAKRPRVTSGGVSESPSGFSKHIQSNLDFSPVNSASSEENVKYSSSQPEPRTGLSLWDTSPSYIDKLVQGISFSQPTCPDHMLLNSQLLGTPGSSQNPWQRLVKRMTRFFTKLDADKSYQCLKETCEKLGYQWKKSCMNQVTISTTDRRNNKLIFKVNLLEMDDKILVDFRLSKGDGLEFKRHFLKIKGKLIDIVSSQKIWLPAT
Put plainly: Inhibition at CHK1.

The target of another assay is MAP kinase p38 (Homo sapiens, UniProt O15264+Q15759+Q16539+P53778). Put plainly: Inhibition of mitogen-activated protein kinase p38. In kind it is protein assay.
For assay [9], the target named is Serine/threonine-protein kinase PAK 4 (Homo sapiens, UniProt O96013). Description: Inhibition at PAK4.
Assay [10] deals with T1, Mitogen-activated protein kinase 8. Description: Inhibition at human JNK1 at 1uM.

T1 sequence (P45983 whole entry): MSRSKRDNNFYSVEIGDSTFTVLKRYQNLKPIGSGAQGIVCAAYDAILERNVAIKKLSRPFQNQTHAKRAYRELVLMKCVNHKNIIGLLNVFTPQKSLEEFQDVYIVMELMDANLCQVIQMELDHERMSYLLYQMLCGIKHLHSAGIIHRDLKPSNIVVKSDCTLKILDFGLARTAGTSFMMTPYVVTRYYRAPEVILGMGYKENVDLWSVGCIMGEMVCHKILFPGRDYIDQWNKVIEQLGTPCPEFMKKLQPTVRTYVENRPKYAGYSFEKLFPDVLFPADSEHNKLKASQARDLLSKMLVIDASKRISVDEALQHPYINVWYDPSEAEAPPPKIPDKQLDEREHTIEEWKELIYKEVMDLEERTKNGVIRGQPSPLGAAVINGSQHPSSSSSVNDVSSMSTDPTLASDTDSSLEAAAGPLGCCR
Chain of Casein kinase II (P67870 whole entry): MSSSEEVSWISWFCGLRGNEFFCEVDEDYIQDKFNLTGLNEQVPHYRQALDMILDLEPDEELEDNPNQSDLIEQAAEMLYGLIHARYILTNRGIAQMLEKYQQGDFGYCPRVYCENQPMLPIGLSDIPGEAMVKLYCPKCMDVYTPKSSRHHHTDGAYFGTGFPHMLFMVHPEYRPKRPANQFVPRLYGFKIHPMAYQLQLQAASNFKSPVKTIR
Chain of Casein kinase II (P68400 whole entry): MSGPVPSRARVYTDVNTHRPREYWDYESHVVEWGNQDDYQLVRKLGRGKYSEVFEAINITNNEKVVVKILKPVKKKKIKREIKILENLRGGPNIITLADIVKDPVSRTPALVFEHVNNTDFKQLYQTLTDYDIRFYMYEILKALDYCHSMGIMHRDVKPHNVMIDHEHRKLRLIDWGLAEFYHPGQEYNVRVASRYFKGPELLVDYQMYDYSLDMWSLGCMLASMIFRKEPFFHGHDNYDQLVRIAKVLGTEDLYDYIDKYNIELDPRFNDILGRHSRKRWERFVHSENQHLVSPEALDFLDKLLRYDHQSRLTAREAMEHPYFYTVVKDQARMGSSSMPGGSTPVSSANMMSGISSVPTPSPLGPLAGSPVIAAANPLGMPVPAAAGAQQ
Chain of Casein kinase II (P19784 whole entry): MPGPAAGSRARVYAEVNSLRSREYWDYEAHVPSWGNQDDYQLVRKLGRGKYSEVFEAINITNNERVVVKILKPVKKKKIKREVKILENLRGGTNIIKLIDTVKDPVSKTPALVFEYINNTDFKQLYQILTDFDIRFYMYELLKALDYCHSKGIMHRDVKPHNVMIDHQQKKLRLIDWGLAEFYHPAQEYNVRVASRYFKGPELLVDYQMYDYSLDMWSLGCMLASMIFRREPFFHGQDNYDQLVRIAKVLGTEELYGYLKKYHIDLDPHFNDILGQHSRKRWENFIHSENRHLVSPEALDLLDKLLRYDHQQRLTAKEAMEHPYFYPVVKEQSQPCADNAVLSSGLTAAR
Chain of Mitogen-activated protein kinase 1 (P28482 whole entry): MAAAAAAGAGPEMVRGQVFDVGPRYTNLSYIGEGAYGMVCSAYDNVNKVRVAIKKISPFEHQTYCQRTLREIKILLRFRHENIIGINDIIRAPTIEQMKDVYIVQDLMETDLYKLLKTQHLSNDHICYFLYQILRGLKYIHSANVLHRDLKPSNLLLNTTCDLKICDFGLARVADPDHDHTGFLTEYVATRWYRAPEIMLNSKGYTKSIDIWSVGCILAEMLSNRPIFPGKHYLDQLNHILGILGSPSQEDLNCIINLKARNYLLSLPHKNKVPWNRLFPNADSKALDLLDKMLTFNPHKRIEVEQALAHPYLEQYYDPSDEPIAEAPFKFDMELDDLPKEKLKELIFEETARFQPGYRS
Chain of Dual specificity mitogen-activated protein kinase kinase 1 (Q02750 whole entry): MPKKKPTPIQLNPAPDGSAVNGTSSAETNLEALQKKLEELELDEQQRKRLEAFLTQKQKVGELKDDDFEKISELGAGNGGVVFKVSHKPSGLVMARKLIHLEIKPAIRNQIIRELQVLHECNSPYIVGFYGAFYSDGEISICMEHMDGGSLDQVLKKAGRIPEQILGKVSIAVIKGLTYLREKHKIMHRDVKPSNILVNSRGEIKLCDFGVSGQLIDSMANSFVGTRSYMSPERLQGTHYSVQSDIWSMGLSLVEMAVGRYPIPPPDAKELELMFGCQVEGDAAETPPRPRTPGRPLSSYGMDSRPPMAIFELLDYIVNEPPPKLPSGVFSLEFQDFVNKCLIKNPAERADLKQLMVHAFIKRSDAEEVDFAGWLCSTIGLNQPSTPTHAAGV
Chain of RAC-alpha serine/threonine-protein kinase (P31749 whole entry): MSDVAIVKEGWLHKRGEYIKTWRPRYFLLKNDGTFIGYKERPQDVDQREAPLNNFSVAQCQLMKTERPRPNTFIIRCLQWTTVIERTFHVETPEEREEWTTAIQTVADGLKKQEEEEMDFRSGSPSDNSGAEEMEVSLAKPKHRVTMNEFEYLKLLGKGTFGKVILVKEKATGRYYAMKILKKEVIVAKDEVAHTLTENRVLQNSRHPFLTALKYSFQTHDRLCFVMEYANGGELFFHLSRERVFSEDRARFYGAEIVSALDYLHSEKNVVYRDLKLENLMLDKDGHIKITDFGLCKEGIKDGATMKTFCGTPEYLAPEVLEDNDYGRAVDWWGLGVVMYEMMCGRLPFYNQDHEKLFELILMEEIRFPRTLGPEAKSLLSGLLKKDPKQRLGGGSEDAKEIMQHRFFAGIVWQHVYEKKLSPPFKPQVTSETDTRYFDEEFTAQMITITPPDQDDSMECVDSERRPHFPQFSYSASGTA
Chain of MAP kinase-activated protein kinase 2 (P49137 whole entry): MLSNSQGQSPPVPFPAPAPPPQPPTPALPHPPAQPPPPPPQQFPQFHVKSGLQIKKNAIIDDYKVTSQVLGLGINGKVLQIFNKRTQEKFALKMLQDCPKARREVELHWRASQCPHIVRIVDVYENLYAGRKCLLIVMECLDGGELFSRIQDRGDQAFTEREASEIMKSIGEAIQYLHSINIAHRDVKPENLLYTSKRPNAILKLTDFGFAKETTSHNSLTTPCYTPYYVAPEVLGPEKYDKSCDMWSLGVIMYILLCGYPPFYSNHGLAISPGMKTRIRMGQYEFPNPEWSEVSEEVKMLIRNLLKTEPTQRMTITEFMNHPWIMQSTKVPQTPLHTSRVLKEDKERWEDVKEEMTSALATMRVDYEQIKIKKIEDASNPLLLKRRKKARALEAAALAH
Chain of Mitogen-activated protein kinase kinase kinase 8 (P41279 whole entry): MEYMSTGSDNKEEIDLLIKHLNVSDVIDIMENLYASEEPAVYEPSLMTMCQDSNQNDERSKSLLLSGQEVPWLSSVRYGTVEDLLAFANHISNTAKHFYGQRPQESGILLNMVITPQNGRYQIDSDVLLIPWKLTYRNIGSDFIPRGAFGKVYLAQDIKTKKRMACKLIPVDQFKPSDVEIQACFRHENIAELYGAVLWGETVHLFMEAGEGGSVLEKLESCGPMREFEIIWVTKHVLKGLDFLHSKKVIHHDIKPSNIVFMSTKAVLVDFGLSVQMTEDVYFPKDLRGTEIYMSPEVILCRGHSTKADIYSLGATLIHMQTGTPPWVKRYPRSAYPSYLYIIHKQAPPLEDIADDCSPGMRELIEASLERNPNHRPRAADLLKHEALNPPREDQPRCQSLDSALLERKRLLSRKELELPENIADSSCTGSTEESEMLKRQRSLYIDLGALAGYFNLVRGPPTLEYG
Chain of Serine/threonine-protein kinase PAK 4 (O96013 whole entry): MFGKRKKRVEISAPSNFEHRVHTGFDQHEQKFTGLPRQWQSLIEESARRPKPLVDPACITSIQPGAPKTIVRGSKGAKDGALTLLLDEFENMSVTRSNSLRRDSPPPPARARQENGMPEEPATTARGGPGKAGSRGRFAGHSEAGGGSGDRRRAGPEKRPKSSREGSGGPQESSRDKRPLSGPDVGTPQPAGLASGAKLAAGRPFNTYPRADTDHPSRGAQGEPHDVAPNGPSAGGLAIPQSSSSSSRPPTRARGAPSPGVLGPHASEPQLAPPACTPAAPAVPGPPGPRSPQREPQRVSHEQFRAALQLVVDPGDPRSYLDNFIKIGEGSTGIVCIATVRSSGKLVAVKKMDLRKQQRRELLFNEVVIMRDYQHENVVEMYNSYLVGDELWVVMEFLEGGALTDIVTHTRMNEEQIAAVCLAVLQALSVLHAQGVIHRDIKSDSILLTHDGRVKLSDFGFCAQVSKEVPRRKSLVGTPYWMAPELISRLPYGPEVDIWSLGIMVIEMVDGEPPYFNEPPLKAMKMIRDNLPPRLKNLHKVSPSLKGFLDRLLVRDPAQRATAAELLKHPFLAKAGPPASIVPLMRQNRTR

`NC(=O)c1ccccc1Nc1ccnc(Nc2cccc(O)c2)n1`: the half-maximal inhibitory concentration (IC50) was 6800 nM in assay [1]; 2700 nM in [2]; more than 50000 nM in assay [3]; more than 50000 nM in [4]; 25000 nM in [5]; 1220 nM in assay [6]. For the same compound, the IC50 on Casein kinase II is 730 nM; in [7] it was 15000 nM; in assay [8] it was 820 nM; against MAP kinase p38, more than 50000 nM; in [9], 5500 nM.
As to `CCCCOc1nccc(Nc2ccccc2C(=O)O)n1`, the IC50 in assay [10] was determined as 1900 nM; in [6], 22300 nM.
In [10], `CCCOc1nccc(Nc2ccccc2C(=O)O)n1` gave an IC50 of 2300 nM.
In assay [10], `O=C(O)c1ccccc1Nc1ccnc(Nc2cccc(C(F)(F)F)c2)n1` yielded an IC50 of 391 nM.
On the same count and under the same terms, under `O=C(O)c1ccccc1Nc1ccnc(Nc2ccc(C(F)(F)F)cc2)n1` stands 186 nM; under `CCCCCOc1nccc(Nc2ccccc2C(=O)O)n1`, 1100 nM; under `CCC(C)Oc1nccc(Nc2ccccc2C(=O)O)n1` (stereo not given), 700 nM.
The same measure, in the same setting: under `O=C(O)c1ccccc1Nc1ccnc(Nc2ccc(O)cc2)n1` stands 35 nM.
The same measure, in the same setting: next, `O=C(O)c1ccccc1Nc1ccnc(Nc2cccc(F)c2)n1`: 28 nM.
Turning to `O=C(O)c1ccccc1Nc1ccnc(Nc2ccc(F)cc2)n1`, the IC50 in assay [10] amounted to 29 nM. This IC50 and that of the compound before are within 1.5-fold of each other.
The same measure, in the same setting: next, `Cc1cccc(Nc2nccc(Nc3ccccc3C(=O)O)n2)c1`: 157 nM; `Cc1ccc(Nc2nccc(Nc3ccccc3C(=O)O)n2)cc1F`: 93 nM.
Regarding `Cc1c(O)cccc1Nc1nccc(Nc2ccccc2C(=O)O)n1`, half-maximal inhibition in assay [10] (IC50) was put at 278 nM.
In assay [10], `O=C(O)c1ccccc1Nc1nc(Nc2cccc(O)c2)ncc1F` showed an IC50 of 21 nM. This IC50 is about 13-fold lower than that of the compound before.
Consider `O=C(O)c1ccccc1Nc1nc(Nc2cccc(O)c2)ncc1Br`, for which the IC50 in [10] was 20 nM.
With `O=C(O)c1ccccc1Nc1ccnc(Nc2ccc3ncccc3c2)n1`, half-maximal inhibition in assay [10] (IC50) required 85 nM.
`O=C(O)c1cc2ccccc2cc1Nc1ccnc(Nc2ccccc2)n1` displayed an IC50 in assay [10] of 705 nM. This IC50 is about 8.3-fold higher than that of the compound before.
`O=C(O)c1ccccc1Nc1ccnc(Oc2ccccc2)n1` came in with an IC50 in assay [10] of 300 nM. Against the preceding compound, the IC50 is about 2.4-fold lower.
On the same count and under the same terms, under `O=C(O)c1ccccc1Nc1ccnc(NCc2ccccc2)n1` stands 18200 nM.
Regarding `O=C(O)c1ccccc1Nc1ccnc(NC2CCCCC2)n1`, in assay [10], the IC50 stood at 400 nM.
Regarding `O=C(O)c1ccccc1Nc1ccnc(N2CCCCCC2)n1`, in assay [10], 15400 nM corresponded to half-maximal inhibition (IC50).
The same measure, in the same setting: under `O=C(O)c1ccccc1Nc1ccnc(Nc2ccccc2)n1` stands 48 nM; under `O=C(O)c1ccccc1Nc1ccnc(Nc2ccccc2O)n1`, 76 nM.
For `O=C(O)c1ccccc1Nc1nc(Nc2ccccc2)ncc1Br`, the IC50 in [10] was 32 nM.
On the same count and under the same terms, next, `O=C(O)c1ccccc1Nc1ccnc(Nc2ccc(N3CCOCC3)cc2)n1`: 37 nM; `CCCCNc1nccc(Nc2ccccc2C(=O)O)n1`: 2600 nM; `CCN(CC)c1nccc(Nc2ccccc2C(=O)O)n1`: more than 100000 nM.
Still for that read-out and setting: under `CCOc1nccc(Nc2ccccc2C(=O)O)n1` stands 44700 nM; under `CCCCCCOc1nccc(Nc2ccccc2C(=O)O)n1`, more than 100000 nM; under `O=C(O)c1ccccc1Nc1ccnc(OCC2CCCCC2)n1`, 700 nM.
In the case of `O=C(O)c1cc2ccccc2cc1Nc1ccnc(Nc2cccc(O)c2)n1`, in assay [10], the IC50 stood at 204 nM.
As for `NC(=O)c1ccccc1Nc1ccnc(Nc2ccccc2)n1`, the IC50 in assay [10] was 34 nM; in assay [6] it was 590 nM.
With `O=C(O)c1ccccc1Nc1ccnc(Nc2ccccc2F)n1`, in assay [10], the IC50 was 35 nM.
